Results taken from patent US5212159A, “Anticataract composition” (Senju Pharmaceutical Co., Ltd., priority 1991, dated 1993).

System: Streptozotocin-induced Diabetic Cataract
Assay: Inhibitory effect on streptozotocin-induced diabetic cataract (slit-lamp cataract score, Sasaki scale)
Type: in vivo, male SD rats
Description: Streptozotocin (hereafter abbreviated as STZ), 70 mg/kg, was administered intravenously to 28 male SD rats aged 4 weeks to induce diabetes. Thereafter, the animals were divided into three groups (two groups consisting of 10 animals each and a group consisting of 8 animals). […] The lens was examined with a slit lamp under mydriasis with Mydrin-P before the beginning of drug administration and every seven days after initiation of administration. The degree of cataract was scored according to the rating scale of Sasaki et al. (Ophthalmic Res. 15: 185-190, 1983) and the anticataract activity of each drug was tested by time series analysis of variance. Body weights were taken on each observation day. […] Rating scale of Sasaki et al. 0: No abnormality. […] Vacuoles are present in the equator of the lens. […] Vacuoles spread toward the anterior pole beneath the cortex of the anterior lens capsule. […] Vacuole begin to merge. […] The deep layer of the cortex of the anterior lens capsule is cloudy. […] The central part of the lens is milk white in color. […] Virtually the entire lens is milk white in color (mature cataract).

[1] = compared with the control group, 100 mg/kg/day i.p. for 56 days
[2] = day 7 after the beginning of treatment, 100 mg/kg/day i.p.
[3] = day 14 after the beginning of treatment, 100 mg/kg/day i.p.
[4] = day 21 after the beginning of treatment, 100 mg/kg/day i.p.
[5] = day 28 after the beginning of treatment, 100 mg/kg/day i.p.
[6] = day 35 after the beginning of treatment, 100 mg/kg/day i.p.
[7] = day 42 after the beginning of treatment, 100 mg/kg/day i.p.
[8] = day 49 after the beginning of treatment, 100 mg/kg/day i.p.
[9] = day 56 after the beginning of treatment, 100 mg/kg/day i.p.

N[C@@H](CCC(=O)N[C@@H](CS)C(=O)NCC(=O)O)C(=O)O [Glutathione, glutathione]
Degree of progression of cataract, time series analysis of variance [1]: no significant difference from the control group
Time at which cataract scores were reached [1]: scores of 5 and 6 were reached later than in the control group
Number of eyes with cataract score 0 (day 0 after the beginning of treatment, 100 mg/kg/day i.p.): 16 eyes
Number of eyes with cataract score 0 [2]: 7 eyes
Number of eyes with cataract score 1 [2]: 9 eyes
Number of eyes with cataract score 0 [3]: 1 eyes
Number of eyes with cataract score 1 [3]: 13 eyes
Number of eyes with cataract score 2 [3]: 2 eyes
Number of eyes with cataract score 1 [4]: 3 eyes
Number of eyes with cataract score 2 [4]: 13 eyes
Number of eyes with cataract score 2 [5]: 9 eyes
Number of eyes with cataract score 3 [5]: 7 eyes
Number of eyes with cataract score 2 [6]: 3 eyes
Number of eyes with cataract score 3 [6]: 8 eyes
Number of eyes with cataract score 4 [6]: 3 eyes
Number of eyes with cataract score 3 [7]: 11 eyes
Number of eyes with cataract score 4 [7]: 3 eyes
Number of eyes with cataract score 3 [8]: 10 eyes
Number of eyes with cataract score 4 [8]: 3 eyes
Number of eyes with cataract score 5 [8]: 1 eyes
Number of eyes with cataract score 3 [9]: 4 eyes
Number of eyes with cataract score 4 [9]: 6 eyes
Number of eyes with cataract score 5 [9]: 3 eyes
Number of eyes with cataract score 6 [9]: 1 eyes
